Source: ChEMBL document CHEMBL1146131, “3D-QSAR studies of farnesyltransferase inhibitors: a comparative molecular field analysis approach” (Bioorg Med Chem Lett, 2006)

Target: Protein farnesyltransferase (Homo sapiens, UniProt P49354+P49356)
Assay: Inhibition of FTase
Format: protein-complex assay

SMILES	IC50 [nM]
Cn1cncc1C(OCc1ccc(C#N)cc1-c1cccc(Cl)c1)c1ccc(C(F)(F)F)cc1 (stereo not given)	1120
Cc1ncc(C(OCc2ccc(C#N)cc2-c2ccc3c(c2)OCO3)c2ccc(C#N)cc2)n1C (stereo not given)	1620
COc1cccc(-c2cc([N+](=O)[O-])ccc2COC(c2ccc(C#N)cc2)c2cncn2C)c1 (stereo not given)	1120
Cn1cncc1C(OCc1ccc(C#N)cc1NS(=O)(=O)c1cccc2ccccc12)c1ccc(C#N)cc1 (stereo not given)	2630
Cc1ccc(-c2cc(C#N)ccc2COC(c2ccc(C#N)cc2)c2cncn2C)cc1 (stereo not given)	1120
Cn1cncc1C(OCc1ccc(C#N)cc1NC(=O)c1ccccc1)c1ccc(C#N)cc1 (stereo not given)	5010
COc1ccc(-c2cc(C#N)ccc2COC(c2ccc(C#N)cc2)c2cncn2C)cc1 (stereo not given)	977
Cn1cncc1C(OCc1ccc(C#N)cc1-c1ccc2c(c1)OC(F)(F)O2)c1ccc(C#N)cc1 (stereo not given)	1120
Cn1cncc1C(OCc1ccc(Cl)cc1-c1ccccc1Cl)c1ccc(C#N)cc1 (stereo not given)	8910
COc1cccc(-c2cc(NS(C)(=O)=O)ccc2COC(c2ccc(C#N)cc2)c2cncn2C)c1 (stereo not given)	35500
COc1cccc(-c2cc(C#N)ccc2COC(c2ccc(Cl)cc2)c2cncn2C)c1 (stereo not given)	2040
COc1cccc(-c2cc(C(=O)O)ccc2COC(c2ccc(C#N)cc2)c2cncn2C)c1 (stereo not given)	83200
COc1cccc(-c2cc(N)ccc2COC(c2ccc(C#N)cc2)c2cncn2C)c1 (stereo not given)	40700
Cn1cncc1C(OCc1ccc(C#N)cc1-c1cc(F)cc(F)c1)c1ccc(C#N)cc1 (stereo not given)	1000
COc1cccc(-c2cc(C#N)ccc2COC(c2ccc(C#N)c(Cl)c2)c2cncn2C)c1 (stereo not given)	977
Cc1ccc(S(=O)(=O)Nc2cc(C#N)ccc2COC(c2ccc(C#N)cc2)c2cncn2C)cc1 (stereo not given)	1000
CCOc1ccc(-c2cc(C#N)ccc2COC(c2ccc(C#N)cc2)c2cncn2C)cc1 (stereo not given)	1200
COCC(=O)Nc1ccc(COC(c2ccc(C#N)cc2)c2cncn2C)c(-c2cccc(OC)c2)c1 (stereo not given)	11200
Cn1cncc1C(OCc1ccc(C#N)cc1C(=O)Nc1ccccc1)c1ccc(C#N)cc1 (stereo not given)	2240
Cn1cncc1C(OCc1ccc(C#N)cc1-c1cccc2cccnc12)c1ccc(C#N)cc1 (stereo not given)	5250
N#Cc1ccc(C(OCc2ccc(C#N)cc2-c2cccc(Cl)c2)c2cncs2)cc1 (stereo not given)	4070
CCOc1cccc(-c2cc(Cl)ccc2COC(c2ccc(C#N)cc2)c2cncn2C)c1 (stereo not given)	1120
COC(=O)c1ccc(COC(c2ccc(C#N)cc2)c2cncn2C)c(-c2cccc(OC)c2)c1 (stereo not given)	13200
N#Cc1ccc(C(OCc2ccc(C#N)cc2-c2ccc3c(c2)OCO3)c2cnccc2Cl)cc1 (stereo not given)	15100
Cc1ncc(C(OCc2ccc(C#N)cc2-c2cccc(Cl)c2)c2ccc(C#N)cc2)n1C (stereo not given)	2040
Cn1cncc1C(OCc1ccc(Cl)cc1-c1ccc(Cl)cc1)c1ccc(C#N)cc1 (stereo not given)	4900
COc1cccc(-c2cc(C=O)ccc2COC(c2ccc(C#N)cc2)c2cncn2C)c1 (stereo not given)	1620

The remaining molecules from weak to strong by IC50, led by results:

IC50 [nM]	SMILES
955	Cn1cncc1C(OCc1ccc(C#N)cc1-c1cccc2ccccc12)c1ccc(C#N)cc1 (stereo not given)
912	COc1cccc(-c2cc(Cl)ccc2COC(c2ccc(C#N)cc2)c2cncn2C)c1 (stereo not given)
891	Cn1cncc1C(OCc1ccc(C#N)cc1NS(=O)(=O)c1cccs1)c1ccc(C#N)cc1 (stereo not given)
871	Cn1cncc1C(OCc1ccc(C#N)cc1-c1ccc2c(c1)OCO2)c1ccc(C#N)cc1 (stereo not given)
871	Cn1cncc1C(OCc1ccc(C#N)cc1-c1cccc(Cl)c1)c1ccc(C#N)cc1 (stereo not given)
851	Cn1cncc1C(OCc1ccc(C#N)cc1-c1cccc(OC(F)(F)F)c1)c1ccc(C#N)cc1 (stereo not given)
813	Cn1cncc1C(OCc1ccc(Cl)cc1-c1cccc(Cl)c1)c1ccc(C#N)cc1 (stereo not given)
776	Cn1cncc1C(OCc1ccc(C#N)cc1-c1cccc(Cl)c1)c1ccc(C#N)cc1F (stereo not given)
759	Cn1cncc1C(OCc1ccc(C#N)cc1C(=O)Nc1cccc(Cl)c1)c1ccc(C#N)cc1 (stereo not given)
692	CCOc1cccc(-c2cc(C#N)ccc2COC(c2ccc(C#N)cc2)c2cncn2C)c1 (stereo not given)
617	Cn1cncc1C(OCc1ccc(C#N)cc1NCc1cc(F)cc(F)c1)c1ccc(C#N)cc1 (stereo not given)
447	Cn1cncc1C(OCc1ccc(C#N)cc1-c1cccc(Cl)c1)c1ccc(C#N)c(F)c1 (stereo not given)
191	COCc1cccc(-c2cc(C#N)ccc2COC(c2ccc(C#N)cc2)c2cncn2C)c1 (stereo not given)
